Measurements published in ChEMBL document CHEMBL5137002, “A Comprehensive Biological and Synthetic Perspective on 2-Deoxy-d-Glucose (2-DG), A Sweet Molecule with Therapeutic and Diagnostic Potentials” (J Med Chem, 2022).

Tests used:
[1] = test system: Saccharomyces cerevisiae; assay: Inhibition of yeast hexokinase assessed as Km
[2] = test system: SARS-CoV-2; assay: Antiviral activity against SARS-CoV-2 B.6 in African green monkey Vero E6 cells assessed as inhibition of virus multiplication; assay type: functional, organism-based; settings: Severe acute respiratory syndrome coronavirus 2, B.6, Vero C1008
[3] = test system: SARS-CoV-2; assay: Antiviral activity against SARS-CoV-2 B.1.1.7 in African green monkey Vero E6 cells assessed as inhibition of virus multiplication; assay type: functional, organism-based; settings: Severe acute respiratory syndrome coronavirus 2, B.1.1.7, Vero C1008
[4] = test system: SARS-CoV-2; assay: Antiviral activity against SARS-CoV-2 in African green monkey Vero cells assessed as inhibition of virus multiplication in presence of extracellular glucose; assay type: functional, Severe acute respiratory syndrome coronavirus 2
[5] = test system: SARS-CoV-2; assay: Antiviral activity against SARS-CoV-2 in African green monkey Vero E6 cells assessed as inhibition of virus multiplication at 1 mM; assay type: functional; settings: Severe acute respiratory syndrome coronavirus 2, Vero C1008
[6] = Competitive inhibition of rat brain hexokinase
[7] = Competitive inhibition of yeast hexokinase; parameters: species or system Saccharomyces cerevisiae
[8] = Drug uptake in tumor of rat measured per gram of tissue at 1 hr; assay type: ADME, tissue-based, Neoplasm; settings: in vivo
[9] = Ratio of tumor to blood biodistribution in rat after 60 mins; assay type: ADME, organism-based; settings: tumor and blood
[10] = test system: U-87 MG; assay: Growth inhibition of human U87 cells under hypoxic condition; assay type: functional, cell-based, U-87MG ATCC
[11] = test system: U-87 MG; assay: Growth inhibition of human U87 cells under normoxic condition; assay type: functional, cell-based, U-87MG ATCC

`OC[C@H]1OC(O)[C@@H](F)[C@@H](O)[C@@H]1O` (stereo not given in full) showed a Km [1] of 410 µM.

`OC1C[C@H](O)[C@H](O)CO1` (stereo not given in full) gave a Km [1] of 590 µM.

With `OC[C@H]1OC(O)C[C@@H](O)[C@@H]1O` (stereo not given in full) the IC50 [2] was less than 1000 µM, the IC50 [3] was less than 1000 µM and the “inhibition (INH)” value [4] was 7%. It also gave an inhibition at 1000 µM [5] of 93%.

With `CC(=O)Nc1c(I)c(C(=O)N[C@H]2C(O)O[C@H](CO)[C@@H](O)[C@@H]2O)c(I)c(N(C)C(C)=O)c1I` (stereo not given in full) [METRIZAMIDE] the Ki [6] was 20000 µM and the Ki [7] was 700 µM.

With `OC[C@H]1OC(O)[C@H]([18F])[C@@H](O)[C@@H]1O` (stereo not given in full) [FLUDEOXYGLUCOSE F 18] the Drug uptake [8] was 2.65% and the Kp at 1 h [9] was 22.1.

`CC(=O)OC[C@H]1OC(O)C[C@@H](OC(C)=O)[C@@H]1O` (stereo not given in full) gave an IC50 [10] of 1000 µM and an IC50 [11] of 1000 µM.

For `OC[C@H]1OC(O)[C@H](O)[C@@H](F)[C@@H]1O` (stereo not given in full), the Km [1] was 70000 µM.

Compound `OC[C@H]1OC(O)[C@@H]([18F])[C@@H](O)[C@@H]1O` (stereo not given in full) has a Drug uptake [8] of 2.65% and a Kp at 1 h [9] of 29.4.

`OC[C@H]1OC(O)[C@H](F)[C@@H](O)[C@@H]1O` (stereo not given in full) showed a Km [1] of 190 µM.

Work on `OC[C@H]1OC(O)C(F)(F)[C@@H](O)[C@@H]1O` (stereo not given in full) yielded a Km [1] of 130 µM.

For `NC1C(O)OC(CO)[C@@H](O)[C@@H]1O` (stereo not given in full), the Ki [6] was 300 µM and the Ki [7] was 700 µM.

With `OC[C@H]1OC(O)[C@H](O)[C@@H](O)[C@@H]1F` (stereo not given in full) the Km [1] was 84000 µM.
